# Patent US9861096B2, “Biodegradable chemical delivery system” (Cornell University, priority 2008, dated 2018)
# Test: Identification of Columbia Blue in release media by LC/MS (stability)
# Format: physicochemical
# Details: water at room temperature and PBS pH 7.4 at 37° C., 16 week release experiments
# Description: The concentration of Columbia Blue was determined using Liquid Chromatography/Mass Spectroscopy (LC/MS) (Agilent Technologies 6130 Quadrupole LC/MS), and the Columbia Blue was identified using mass spectroscopy. The column used was a Restek Ultra C18, 5 μm, 250×4.6 mm. The mobile phase consisted of 60% acetonitrile and 40% water at a flow rate of 1.0 ml/min. The concentration was determined using UV detection at a wavelength of 374 nm.
# A model pesticide, Columbia Blue, was chosen following Briggs's “rule of 3” (Briggs, G. G., Uptake of Agrochemicals & Pharmaceuticals ‘Predicting uptake & movement of agrochemicals from physical properties’, in SCI Meeting. 1997) and Clarke-Delaney's “guide of 2” (Clarke, E. D. and J. S. Delaney, Designing Drugs and Crop Protectants: Processes, Problems and Solutions, ed. D. L. M. Ford, J. Dearden, H. V. de Waterbeemd. 2003: Blackwell Publishing, Malden). During the release measurements, Columbia Blue was identified by the LC/MS. The retention time of Columbia Blue of HPLC spectrum remained unchanged at 9.8 minutes.
substance,measurement,value
Columbia Blue,degradation of Columbia Blue in the release media,did not degrade
